Results taken from article PMC2923621, “Gliadin Peptide P31-43 Localises to Endocytic Vesicles and Interferes with Their Maturation” (PLoS ONE, 2010).

Key:
[1] = system: CaCo-2 cells; test: BrdU incorporation with or without Hrs-EGFP transfection; type: cell-based; details: serum starved 0.1% FCS, mean ± SD of three independent experiments
Protocol: We used the lipofectamine kit (Invitrogen, San Giuliano Milanese, Italy) according to the manufacturer's instructions to transfect all plasmids (Rab5-EGFP, Rab7-EGFP, Hrs-EGFP and Hrs-Ha). Briefly, CaCo-2 cells seeded on coverslips for 48 h were transfected with the plasmids for 16 h. The next day, transfected cells were pulsed and chased as described below or stained for Bromodeoxyuridine (BrdU) with a monoclonal antibody (Sigma-Aldrich, Milan, Italy) and total nuclei were identified by Hoechst staining. BrdU incorporation was performed as described elsewhere, briefly, CaCo-2 cells seeded on coverslips were transfected with Hrs-EGFP and serum starved in DMEM 0.1% foetal calf serum, antibiotics and glutamine for 30–48 h followed by 24 h treatment with gliadin peptides and/or growth factors. BrdU ([…], Boehringer) was added for one hour before fixing the samples. The cells fixed with paraformaldehyde and permeabilised with triton, were stained for BrdU as described and observed at the miscroscope (Axiophot microscope, Carl Zeiss MicroImaging, Inc.). Greater than 100 HRS-EGFP positive cells in several fields were evaluated for BrdU incorporation in each sample. The number of HRS-EGFP/BrdU positive cells was expressed as a proportion of the total Hoechst positive nuclei.

[2] = target: T1, Hrs (Homo sapiens, UniProt O14964); test: Subcellular fractionation and immunoblotting of endogenous Hrs; type: cell-based; details: CaCo-2 cells, western blot, three independent experiments
T1 construct: to quantify the amount of endogenous Hrs present in each compartment; endogenous in cells; host or cells: CaCo-2
Protocol: Near-confluent Caco2 cells in a 90-mm dish were incubated with EGF and P31-43 at various times, after homogenization (10 mM Tris-HCl [pH 7.4], 1 mM EDTA, and the mixture of phosphatase and protease inhibitors) the nuclear fraction was eliminated by centrifugation. The soluble cytosolic and the membrane fraction were obtained by ultracentrifugation. Electrophoresis and immunoblotting were performed as described elsewhere. Briefly the proteins of the soluble cytosolic and the membrane fractions were separated by SDS-PAGE and incubated with anti-Hrs mouse monoclonal antibody (Alexis, Vinci-Biochem, Florence, Italy) or anti-EGFR rabbit polyclonal antibody (Cell Signaling Celbio, Milan Italy) or anti-tubulin mouse monoclonal antibody (SIGMA-Aldrich, Milan, Italy). Densitometric analysis was performed as before.

T1 sequence (O14964 whole entry): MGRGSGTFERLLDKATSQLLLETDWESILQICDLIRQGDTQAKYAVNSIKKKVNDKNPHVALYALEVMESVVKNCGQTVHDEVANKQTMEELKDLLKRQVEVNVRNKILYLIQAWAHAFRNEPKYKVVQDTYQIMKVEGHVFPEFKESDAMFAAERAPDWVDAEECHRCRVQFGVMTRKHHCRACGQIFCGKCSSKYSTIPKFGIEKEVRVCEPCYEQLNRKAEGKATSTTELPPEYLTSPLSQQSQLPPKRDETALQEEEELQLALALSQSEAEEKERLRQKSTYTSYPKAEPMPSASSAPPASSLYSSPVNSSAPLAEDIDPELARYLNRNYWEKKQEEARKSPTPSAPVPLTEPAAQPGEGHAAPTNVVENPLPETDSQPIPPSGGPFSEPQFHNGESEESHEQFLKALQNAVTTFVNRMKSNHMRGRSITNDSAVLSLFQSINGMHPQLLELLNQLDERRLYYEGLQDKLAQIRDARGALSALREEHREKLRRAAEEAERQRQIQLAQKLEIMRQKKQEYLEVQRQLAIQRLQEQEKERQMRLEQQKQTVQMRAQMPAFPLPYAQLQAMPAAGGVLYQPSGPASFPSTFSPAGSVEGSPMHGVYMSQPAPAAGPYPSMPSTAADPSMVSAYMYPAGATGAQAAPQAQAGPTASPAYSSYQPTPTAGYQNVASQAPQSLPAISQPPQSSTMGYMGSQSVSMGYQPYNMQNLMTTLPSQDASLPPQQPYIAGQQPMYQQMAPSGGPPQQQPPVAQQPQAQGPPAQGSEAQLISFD

## EGF: growth factor used at 100 nanograms/ml as positive control
[1]; CaCo-2 cells not expressing Hrs, 24 h treatment (peptides 70 micrograms/ml, EGF 100 nanograms/ml)
  BrdU incorporation (BrdU incorporating cells as percent of total cells): 68.99%±7
[1]; Hrs-EGFP-transfected (Hrs-expressing) CaCo-2 cells, 24 h treatment
  BrdU incorporation (BrdU incorporating cells as percent of total cells): 66.25%±9.53%
[2]; normalised to EGFR
  Amount of Hrs in the membrane fraction: did not affect Hrs concentration in either compartment
[2]; normalised to tubulin
  Amount of Hrs in the cytosolic fraction: did not affect Hrs concentration in either compartment
